# What was measured:
# Format in all cases: nucleic-acid assay
# Nucleic Acid [1] = assay: Stabilization of 5'-AGAGAGAGAGAAAAA-3' ssDNA sequence assessed as melting temperature at pH7 using 100 mM NaCl
# Nucleic Acid [2] = assay: Stabilization of 5'-AGAGAGATAGAAAAA-3' ssDNA sequence assessed as melting temperature at pH7 using 100 mM NaCl
# Nucleic Acid [3] = assay: Stabilization of 5'-AGAGAGAAAGAAAAA-3' ssDNA sequence assessed as melting temperature at pH7 using 100 mM NaCl
# Nucleic Acid [4] = assay: Stabilization of 5'-AGAGAGACAGAAAAA-3' ssDNA sequence assessed as melting temperature at pH7 using 100 mM NaCl
Structure (SMILES),Tm (Nucleic Acid [1]) [°C],Tm (Nucleic Acid [2]) [°C],Tm (Nucleic Acid [3]) [°C],Tm (Nucleic Acid [4]) [°C]
Cc1cn([C@H]2C[C@H](OP(=O)(O)OC[C@H]3O[C@@H](n4cc(C)c(=O)[nH]c4=O)C[C@@H]3OP(=O)(O)OC[C@H]3O[C@@H](n4cc(C)c(N)nc4=O)C[C@@H]3OP(=O)(O)OC[C@H]3O[C@@H](n4cc(C)c(=O)[nH]c4=O)C[C@@H]3OP(=O)(O)OC[C@H]3O[C@@H](n4cc(C)c(N)nc4=O)C[C@@H]3OP(=O)(O)OC[C@H]3O[C@@H](n4cc(C)c(=O)[nH]c4=O)C[C@@H]3O)[C@@H](COP(=O)(O)O[C@H]3C[C@H](n4cc(C)c(=O)[nH]c4=O)O[C@@H]3COP(=O)(O)O[C@H]3C[C@H](c4cn(C5CCCCC5)nn4)O[C@@H]3COP(=O)(O)O[C@H]3C[C@H](n4cc(C)c(=O)[nH]c4=O)O[C@@H]3COP(=O)(O)O[C@H]3C[C@H](n4cc(C)c(N)nc4=O)O[C@@H]3COP(=O)(O)O[C@H]3C[C@H](n4cc(C)c(=O)[nH]c4=O)O[C@@H]3COP(=O)(O)O[C@H]3C[C@H](n4cc(C)c(=O)[nH]c4=O)O[C@@H]3COP(=O)(O)O[C@H]3C[C@H](n4cc(C)c(=O)[nH]c4=O)O[C@@H]3COP(=O)(O)O[C@H]3C[C@H](n4cc(C)c(=O)[nH]c4=O)O[C@@H]3COP(=O)(O)O[C@H]3C[C@H](n4cc(C)c(=O)[nH]c4=O)O[C@@H]3CO)O2)c(=O)nc1N,37,33,34,34
Cc1cn([C@H]2C[C@H](OP(=O)(O)OC[C@H]3O[C@@H](n4cc(C)c(=O)[nH]c4=O)C[C@@H]3OP(=O)(O)OC[C@H]3O[C@@H](n4cc(C)c(N)nc4=O)C[C@@H]3OP(=O)(O)OC[C@H]3O[C@@H](n4cc(C)c(=O)[nH]c4=O)C[C@@H]3OP(=O)(O)OC[C@H]3O[C@@H](n4cc(C)c(N)nc4=O)C[C@@H]3OP(=O)(O)OC[C@H]3O[C@@H](n4cc(C)c(=O)[nH]c4=O)C[C@@H]3O)[C@@H](COP(=O)(O)O[C@H]3C[C@H](n4cc(C)c(=O)[nH]c4=O)O[C@@H]3COP(=O)(O)O[C@H]3C[C@H](c4cn(CSc5ccccc5)nn4)O[C@@H]3COP(=O)(O)O[C@H]3C[C@H](n4cc(C)c(=O)[nH]c4=O)O[C@@H]3COP(=O)(O)O[C@H]3C[C@H](n4cc(C)c(N)nc4=O)O[C@@H]3COP(=O)(O)O[C@H]3C[C@H](n4cc(C)c(=O)[nH]c4=O)O[C@@H]3COP(=O)(O)O[C@H]3C[C@H](n4cc(C)c(=O)[nH]c4=O)O[C@@H]3COP(=O)(O)O[C@H]3C[C@H](n4cc(C)c(=O)[nH]c4=O)O[C@@H]3COP(=O)(O)O[C@H]3C[C@H](n4cc(C)c(=O)[nH]c4=O)O[C@@H]3COP(=O)(O)O[C@H]3C[C@H](n4cc(C)c(=O)[nH]c4=O)O[C@@H]3CO)O2)c(=O)nc1N,40,40,37,38
C#C[C@H]1C[C@H](OP(=O)(O)OC[C@H]2O[C@@H](n3cc(C)c(=O)[nH]c3=O)C[C@@H]2OP(=O)(O)OC[C@H]2O[C@@H](n3cc(C)c(N)nc3=O)C[C@@H]2OP(=O)(O)OC[C@H]2O[C@@H](n3cc(C)c(=O)[nH]c3=O)C[C@@H]2OP(=O)(O)OC[C@H]2O[C@@H](n3cc(C)c(N)nc3=O)C[C@@H]2OP(=O)(O)OC[C@H]2O[C@@H](n3cc(C)c(=O)[nH]c3=O)C[C@@H]2OP(=O)(O)OC[C@H]2O[C@@H](n3cc(C)c(N)nc3=O)C[C@@H]2OP(=O)(O)OC[C@H]2O[C@@H](n3cc(C)c(=O)[nH]c3=O)C[C@@H]2O)[C@@H](COP(=O)(O)O[C@H]2C[C@H](n3cc(C)c(=O)[nH]c3=O)O[C@@H]2COP(=O)(O)O[C@H]2C[C@H](n3cc(C)c(N)nc3=O)O[C@@H]2COP(=O)(O)O[C@H]2C[C@H](n3cc(C)c(=O)[nH]c3=O)O[C@@H]2COP(=O)(O)O[C@H]2C[C@H](n3cc(C)c(=O)[nH]c3=O)O[C@@H]2COP(=O)(O)O[C@H]2C[C@H](n3cc(C)c(=O)[nH]c3=O)O[C@@H]2COP(=O)(O)O[C@H]2C[C@H](n3cc(C)c(=O)[nH]c3=O)O[C@@H]2COP(=O)(O)O[C@H]2C[C@H](n3cc(C)c(=O)[nH]c3=O)O[C@@H]2CO)O1,32,31,32,29
Cc1cn([C@H]2C[C@H](OP(=O)(O)OC[C@H]3O[C@@H](n4cc(C)c(=O)[nH]c4=O)C[C@@H]3OP(=O)(O)OC[C@H]3O[C@@H](n4cc(C)c(N)nc4=O)C[C@@H]3OP(=O)(O)OC[C@H]3O[C@@H](n4cc(C)c(=O)[nH]c4=O)C[C@@H]3OP(=O)(O)OC[C@H]3O[C@@H](n4cc(C)c(N)nc4=O)C[C@@H]3OP(=O)(O)OC[C@H]3O[C@@H](n4cc(C)c(=O)[nH]c4=O)C[C@@H]3O)[C@@H](COP(=O)(O)O[C@H]3C[C@H](n4cc(C)c(=O)[nH]c4=O)O[C@@H]3COP(=O)(O)O[C@H]3C[C@H](c4cn(Cc5ccccc5)nn4)O[C@@H]3COP(=O)(O)O[C@H]3C[C@H](n4cc(C)c(=O)[nH]c4=O)O[C@@H]3COP(=O)(O)O[C@H]3C[C@H](n4cc(C)c(N)nc4=O)O[C@@H]3COP(=O)(O)O[C@H]3C[C@H](n4cc(C)c(=O)[nH]c4=O)O[C@@H]3COP(=O)(O)O[C@H]3C[C@H](n4cc(C)c(=O)[nH]c4=O)O[C@@H]3COP(=O)(O)O[C@H]3C[C@H](n4cc(C)c(=O)[nH]c4=O)O[C@@H]3COP(=O)(O)O[C@H]3C[C@H](n4cc(C)c(=O)[nH]c4=O)O[C@@H]3COP(=O)(O)O[C@H]3C[C@H](n4cc(C)c(=O)[nH]c4=O)O[C@@H]3CO)O2)c(=O)nc1N,38,33,32,34

# Further lines, results first:
Tm (Nucleic Acid [1]) [°C],Tm (Nucleic Acid [2]) [°C],Tm (Nucleic Acid [3]) [°C],Tm (Nucleic Acid [4]) [°C],Structure (SMILES)
38,33,33,33,Cc1cn([C@H]2C[C@H](OP(=O)(O)OC[C@H]3O[C@@H](n4cc(C)c(=O)[nH]c4=O)C[C@@H]3OP(=O)(O)OC[C@H]3O[C@@H](n4cc(C)c(N)nc4=O)C[C@@H]3OP(=O)(O)OC[C@H]3O[C@@H](n4cc(C)c(=O)[nH]c4=O)C[C@@H]3OP(=O)(O)OC[C@H]3O[C@@H](n4cc(C)c(N)nc4=O)C[C@@H]3OP(=O)(O)OC[C@H]3O[C@@H](n4cc(C)c(=O)[nH]c4=O)C[C@@H]3O)[C@@H](COP(=O)(O)O[C@H]3C[C@H](n4cc(C)c(=O)[nH]c4=O)O[C@@H]3COP(=O)(O)O[C@H]3C[C@H](c4cn(-c5ccc(C(=O)O)cc5)nn4)O[C@@H]3COP(=O)(O)O[C@H]3C[C@H](n4cc(C)c(=O)[nH]c4=O)O[C@@H]3COP(=O)(O)O[C@H]3C[C@H](n4cc(C)c(N)nc4=O)O[C@@H]3COP(=O)(O)O[C@H]3C[C@H](n4cc(C)c(=O)[nH]c4=O)O[C@@H]3COP(=O)(O)O[C@H]3C[C@H](n4cc(C)c(=O)[nH]c4=O)O[C@@H]3COP(=O)(O)O[C@H]3C[C@H](n4cc(C)c(=O)[nH]c4=O)O[C@@H]3COP(=O)(O)O[C@H]3C[C@H](n4cc(C)c(=O)[nH]c4=O)O[C@@H]3COP(=O)(O)O[C@H]3C[C@H](n4cc(C)c(=O)[nH]c4=O)O[C@@H]3CO)O2)c(=O)nc1N
42,38,39,36,Cc1ccc(-n2cc([C@H]3C[C@H](OP(=O)(O)OC[C@H]4O[C@@H](n5cc(C)c(=O)[nH]c5=O)C[C@@H]4OP(=O)(O)OC[C@H]4O[C@@H](n5cc(C)c(N)nc5=O)C[C@@H]4OP(=O)(O)OC[C@H]4O[C@@H](n5cc(C)c(=O)[nH]c5=O)C[C@@H]4OP(=O)(O)OC[C@H]4O[C@@H](n5cc(C)c(N)nc5=O)C[C@@H]4OP(=O)(O)OC[C@H]4O[C@@H](n5cc(C)c(=O)[nH]c5=O)C[C@@H]4OP(=O)(O)OC[C@H]4O[C@@H](n5cc(C)c(N)nc5=O)C[C@@H]4OP(=O)(O)OC[C@H]4O[C@@H](n5cc(C)c(=O)[nH]c5=O)C[C@@H]4O)[C@@H](COP(=O)(O)O[C@H]4C[C@H](n5cc(C)c(=O)[nH]c5=O)O[C@@H]4COP(=O)(O)O[C@H]4C[C@H](n5cc(C)c(N)nc5=O)O[C@@H]4COP(=O)(O)O[C@H]4C[C@H](n5cc(C)c(=O)[nH]c5=O)O[C@@H]4COP(=O)(O)O[C@H]4C[C@H](n5cc(C)c(=O)[nH]c5=O)O[C@@H]4COP(=O)(O)O[C@H]4C[C@H](n5cc(C)c(=O)[nH]c5=O)O[C@@H]4COP(=O)(O)O[C@H]4C[C@H](n5cc(C)c(=O)[nH]c5=O)O[C@@H]4COP(=O)(O)O[C@H]4C[C@H](n5cc(C)c(=O)[nH]c5=O)O[C@@H]4CO)O3)nn2)cc1

# Source: ChEMBL document CHEMBL1795250, “Synthesis and base-pairing properties of C-nucleotides having 1-substituted 1H-1,2,3-triazoles” (Bioorg Med Chem Lett, 2009)
